Laboratory results as given in patent US10899738B2 (THE REGENTS OF THE UNIVERSITY OF MICHIGAN, priority 2016, dated 2021).

Biological target: menin protein (Homo sapiens (Human), UniProt O00255)
Test: biochemical
Assay type: binding
Conditions: FP competitive binding; menin protein 4 nM, FAM-MM2 probe 2 nM
In short: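 Test compounds displaced FAM-MM2 (2 nM) from 4 nM menin after 30 min equilibration at room temperature in PBS buffer containing bovine γ-globulin, 4% DMSO and Triton X-100. Binding was followed by fluorescence polarization. Competition curves were fitted by nonlinear regression to give IC50 and Ki.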

Sequence of menin protein (O00255 whole entry): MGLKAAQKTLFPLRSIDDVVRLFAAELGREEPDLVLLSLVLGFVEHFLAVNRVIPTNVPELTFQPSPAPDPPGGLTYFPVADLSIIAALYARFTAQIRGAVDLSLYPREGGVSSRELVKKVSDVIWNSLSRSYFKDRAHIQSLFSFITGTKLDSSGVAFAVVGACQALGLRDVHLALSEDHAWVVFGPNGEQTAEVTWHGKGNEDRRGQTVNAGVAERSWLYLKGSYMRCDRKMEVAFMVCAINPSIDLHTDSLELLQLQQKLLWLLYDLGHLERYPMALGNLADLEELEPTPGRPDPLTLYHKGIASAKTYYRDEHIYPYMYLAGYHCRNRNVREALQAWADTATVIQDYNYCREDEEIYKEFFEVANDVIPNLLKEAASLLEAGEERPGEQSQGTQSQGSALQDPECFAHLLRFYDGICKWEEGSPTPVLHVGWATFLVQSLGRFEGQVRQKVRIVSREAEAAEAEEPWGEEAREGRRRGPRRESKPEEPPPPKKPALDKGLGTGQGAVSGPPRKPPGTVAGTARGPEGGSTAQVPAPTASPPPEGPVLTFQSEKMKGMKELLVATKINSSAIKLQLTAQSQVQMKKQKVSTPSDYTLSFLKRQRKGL

| Menin Binding Affinity IC50 (μM) | SMILES |
| --- | --- |
| No inhibition | COC1CCC(C2(C3CCN(CCCOc4ccc(C#N)cc4)CC3)C(=O)NCc3ccccc32)C1 (stereo not shown) [compound 26, 4-(3-(4-(4-(3-methoxycyclopentyl)-3-oxo-1,2,3,4-tetrahydroisoquinolin-4-yl)piperidin-1-yl)propoxy)benzonitrile] |

Same assay, conditions: FP competitive binding; menin protein 4 nM, FAM-MM2 probe 2 nM; read-out: Menin Binding Affinity IC50

| IC50 | SMILES |
| --- | --- |
| 10400 nM | COC(=O)N1Cc2ccccc2C(C2CCN(CCCOc3ccc(C#N)cc3)CC2)([C@@H]2CCC[C@H]2OC)C1 (mixture of isomers) [compound 323, methyl rac-4-(1-(3-(4-cyanophenoxy)propyl)piperidin-4-yl)-4-((1S,2R)-2-methoxycyclopentyl)-3,4-dihydroisoquinoline-2(1H)-carboxylate] |
| 23700 nM | CS(=O)(=O)c1ccc(N2CC(CN3CCC(C(C#N)(c4ccccc4)[C@H]4CCC[C@H]4S(C)(=O)=O)CC3)C2)cc1 (mixture of isomers) [compound 182, rac-2-((1R,2R)-2-(methylsulfonyl)cyclopentyl)-2-(1-((1-(4-(methylsulfonyl)phenyl)azetidin-3-yl)methyl)piperidin-4-yl)-2-phenylacetonitrile] |
| 1200 nM | CN(C)C(=O)N[C@@H]1CCC[C@H]1C(C#N)(c1ccccc1)C1CCN(CC2CN(c3ccc(S(=O)(=O)c4ccncc4)cc3)C2)CC1 (mixture of isomers) [compound 276, rac-3-((1R,2S)-2-(cyano(phenyl)(1-((1-(4-(pyridin-4-ylsulfonyl)phenyl)azetidin-3-yl)methyl)piperidin-4-yl)methyl)cyclopentyl)-1,1-dimethylurea] |
| 17 nM | CC(=O)O[C@@H]1CCC[C@H]1C(C#N)(c1ccccc1)C1CCN(CC2CN(c3ccc(S(=O)(=O)c4ccnc(C)c4)cc3)C2)CC1 (mixture of isomers) [compound 200, rac-(1R,2S)-2-(cyano(1-((1-(4-((2-methylpyridin-4-yl)sulfonyl)phenyl)azetidin-3-yl)methyl)piperidin-4-yl)(phenyl)methyl)cyclopentyl acetate] |
| 849 nM | CNC(=O)O[C@@H]1CCC[C@H]1C(C#N)(c1ccccc1)C1CCN(CC2CN(c3ccc(S(=O)(=O)c4cnn(C)c4)cc3)C2)CC1 (mixture of isomers) [compound 241, rac-(1R,2S)-2-(cyano(1-((1-(4-((1-methyl-1H-pyrazol-4-yl)sulfonyl)phenyl)azetidin-3-yl)methyl)piperidin-4-yl)(phenyl)methyl)cyclopentyl methylcarbamate] |
| 19200 nM | CN([C@@H]1CCC[C@H]1C(C#N)(c1ccccc1)C1CCN(CC2CN(c3ccc(S(=O)(=O)C4CC4)cc3)C2)CC1)S(C)(=O)=O (mixture of isomers) [compound 274, rac-N-((1R,2S)-2-(cyano(1-((1-(4-(cyclopropylsulfonyl)phenyl)azetidin-3-yl)methyl)piperidin-4-yl)(phenyl)methyl)cyclopentyl)-N-methanesulfonamide] |
| 2100 nM | CNC(=O)O[C@@H]1CCC[C@H]1C(C#N)(c1ccccc1)C1CCN(CC2(C)CN(c3ccc(S(=O)(=O)c4cnn(C)c4)cc3)C2)CC1 (mixture of isomers) [compound 371, rac-(1R,2S)-2-(cyano(1-((3-methyl-1-(4-((1-methyl-1H-pyrazol-4-yl)sulfonyl)phenyl)azetidin-3-yl)methyl)piperidin-4-yl)(phenyl)methyl)cyclopentyl methylcarbamate] |

| SMILES | IC50 |
| --- | --- |
| CS(=O)(=O)CCC(C#N)(c1ccccc1)C1CCN(CCCOc2ccc(C#N)cc2)CC1 (stereo not shown) [compound 303, 4-(3-(4-(1-cyano-3-(methylsulfonyl)-1-phenylpropyl)piperidin-1-yl)propoxy)benzonitrile] | 75300 nM |
| C=CCC1(C2CCN(CCCOc3ccc(C#N)cc3)CC2)NCCc2ccccc21 (stereo not shown) [compound 293, 4-(3-(4-(1-allyl-1,2,3,4-tetrahydroisoquinolin-1-yl)piperidin-1-yl)propoxy)benzonitrile] | 2800 nM |
